Reference: article PMC6648700 (Molecular pharmaceutics, 2018)
pIC50: −log10 of the molar value.

Legend:
[1] = tested on: Nocardia asteroides (clinical isolate); assay: Cell viability IC50 screen; conditions: read-out: IC50 without a β-lactam, Nast
[2] = tested on: Mycobacterium tuberculosis H37Rv ΔRD1 ΔpanCD strain mc^26030; type: cell-based; conditions: for activity against Mtb alone: auxotrophic Mtb H37Rv; for activity against Mtb with sub-MIC50 dose of meropenem: meropenem 1μg/mL with clavulonic acid
[3] = tested on: Mycobacterium smegmatis MC^2155 WT; assay: Cell viability IC50 screen; conditions: for potentiation of IPA by isoniazid, Msmeg: isoniazid at four times less than the lethal concentration; for potentiation with a sub-MIC50 dose of meropenem to inhibit Msmeg growth: meropenem 1.25μg/mL
M. marinum = assay: Growth inhibition and β-lactam potentiation, M. marinum; type: cell-based, Mycobacterium marinum
[4] = tested on: Mycobacterium chelonae (clinical isolate); assay: MIC shift, M. chelonae
[5] = in vivo; cited from earlier work
[6] = tested on: Mycobacterium abscessus PM3386 Δbla; type: cell-based; conditions: GSK690693 50 μM
PknB 1–331 = PknB 1–331 (Mycobacterium tuberculosis, UniProt P9WI81); type: biochemical; conditions: at concentrations tested
PknB 1–331, sequence (P9WI81 1-331): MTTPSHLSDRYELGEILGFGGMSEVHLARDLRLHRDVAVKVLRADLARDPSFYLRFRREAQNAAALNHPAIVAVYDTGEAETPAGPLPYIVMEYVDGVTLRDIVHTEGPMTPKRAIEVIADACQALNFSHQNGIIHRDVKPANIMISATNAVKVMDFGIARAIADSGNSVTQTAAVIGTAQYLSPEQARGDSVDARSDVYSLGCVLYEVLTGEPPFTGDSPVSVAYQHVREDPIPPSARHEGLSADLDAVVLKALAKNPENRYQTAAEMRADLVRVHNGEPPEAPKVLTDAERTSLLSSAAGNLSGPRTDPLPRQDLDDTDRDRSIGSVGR

Compound | pIC50 [1] | activity against Mtb alone [2] | activity against Mtb with sub-MIC50 dose of meropenem [2] | potentiation of IPA by isoniazid, Msmeg [3] | potentiation with a sub-MIC50 dose of meropenem to inhibit Msmeg growth [3] | also measured
CCn1c(-c2nonc2N)nc2c(C#CC(C)(C)O)ncc(OCC3CCNCC3)c21 [GSK554170A] | 4.00 to 4.62 |  |  |  |  | 
CCn1c(-c2nonc2N)nc2c(C#CC(C)(C)O)nc(O[C@@H](CN)c3ccccc3)cc21 [GSK1007102B] | 4.00 to 4.62 | able to attenuate the growth | activity was shifted | did not potentiate | the most potent | 
CCn1c(-c2nonc2N)nc2c(C#CC(C)(C)O)nc(OC[C@H](N)c3ccccc3)cc21 [GSK943949A] | 4.00 to 4.62 |  |  |  |  | 
CCn1c(-c2nonc2N)nc2c(C#CC(C)(C)O)ncc(OC[C@H]3CCCNC3)c21 [GSK690693, 4-(2-(4-amino-1,2,5-oxadiazol-3-yl)-1-ethyl-7-{[(3S)-3-piperidinylmethyl]oxy}−1H-imidazo[4,5-c]pyridin-4-yl)-2-methyl-3-butyn-2-ol] | 4.00 to 4.62 | not active | not active | did not potentiate | able to potentiate | potentiation of β-lactams, M. marinum (M. marinum; Fig. S7C): does not potentiate; activity alone, M. marinum growth (M. marinum; Fig. S7D): effective on its own; potentiation of meropenem, Mche ([4]; with 8 μg/mL clavulanate): two-fold; potentiation of meropenem, Mche ([4]; without clavulanate): did not see any potentiation; side-effects in phase I clinical trials [5]: only moderate side-effects; potentiation of kanamycin, Mab [6]: no effect
CCn1c(-c2nonc2N)nc2cncc(CNC3CCNCC3)c21 [SB-747651A] |  |  |  |  |  | PknB inhibitory activity (PknB 1–331): no inhibitory activity
